For this test, the target named is T1, progesterone receptor (Sus scrofa, UniProt D0EWS6).
T1 construct: from tissue; host or cells: hog uterus, 100,000×g supernatant (cytosol)
T1 sequence (D0EWS6 1-934): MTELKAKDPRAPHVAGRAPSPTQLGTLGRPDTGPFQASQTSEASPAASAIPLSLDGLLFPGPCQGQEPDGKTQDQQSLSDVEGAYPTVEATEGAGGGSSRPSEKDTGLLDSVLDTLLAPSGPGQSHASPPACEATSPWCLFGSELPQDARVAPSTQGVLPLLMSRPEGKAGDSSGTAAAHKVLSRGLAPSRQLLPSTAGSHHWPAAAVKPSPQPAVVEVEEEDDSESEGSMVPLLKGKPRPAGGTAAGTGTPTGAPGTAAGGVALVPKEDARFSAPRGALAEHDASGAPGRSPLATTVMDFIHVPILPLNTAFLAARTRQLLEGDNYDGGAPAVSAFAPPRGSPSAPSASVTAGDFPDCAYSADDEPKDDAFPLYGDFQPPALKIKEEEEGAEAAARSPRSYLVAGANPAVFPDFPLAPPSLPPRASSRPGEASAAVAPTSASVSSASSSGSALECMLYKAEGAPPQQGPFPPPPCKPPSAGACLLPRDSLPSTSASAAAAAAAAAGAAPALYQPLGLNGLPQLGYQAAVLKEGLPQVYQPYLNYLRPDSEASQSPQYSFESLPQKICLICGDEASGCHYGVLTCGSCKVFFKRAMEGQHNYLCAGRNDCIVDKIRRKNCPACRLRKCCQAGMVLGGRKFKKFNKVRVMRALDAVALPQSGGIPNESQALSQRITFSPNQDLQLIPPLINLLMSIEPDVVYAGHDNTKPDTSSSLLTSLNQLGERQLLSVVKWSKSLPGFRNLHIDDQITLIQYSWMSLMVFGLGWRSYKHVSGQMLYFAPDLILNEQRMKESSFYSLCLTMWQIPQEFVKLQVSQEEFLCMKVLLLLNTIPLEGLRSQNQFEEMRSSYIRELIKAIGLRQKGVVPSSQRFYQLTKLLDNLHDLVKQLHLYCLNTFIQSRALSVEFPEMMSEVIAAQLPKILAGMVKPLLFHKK
The experiment in a line: Progesterone receptor binding inhibition ([3H]-progesterone, hog uterus cytosol). The arrangement: species or system hogs. The note with it: [3H]-progesterone ligand, 60 min at 4° C. The protocol:
That is, uteri taken from hogs were disrupted in 5 mM phosphate buffer by means of Polytron homogenizer, and this solution was centrifuged (100,000×g, 30 min) to separate the supernatant, thereby preparing a cytosol containing progesterone receptor. A given concentration of a test drug solution (10 μl) was added to a solution composed of 50 μl of the cytosol obtained Just above (2-3 mg protein/ml) and 40 μl of a solution of [^3 H]-progesterone as a ligand (3.84 TBq/mM, 18.5 kBq/ml), and they were incubated in a test tube for 60 min at 4° C. to effect a reaction. Then, 100 μl of a 0.5% activated carbon solution was added to the reaction solution, and the mixture was allowed to stand for 10 min and then centrifuged (2,000×g, 10 min). The radioactivity of the supernatant was measured with a liquid scintillation counter.
Separately, the radioactivity was measured in the same manner as described above, except that no test drug was added. Further, the radioactivity was measured in the same manner as described above, except that 10 μl of Medroxyprogesterone Acetate (MPA) (10 μg/ml) was added instead of the test drug. The radioactivity with no test drug added was defined as the amount of total binding of [^3 H]-progesterone to the cytosol, and the radioactivity with MPA added was defined as the amount of non-specific binding. […] [formula]

The term IC50 denotes the concentration that gives 50% inhibition.

With `CC(=O)O[C@H]1CC(Cl)=C2C=C3OC(=O)C(C)=C3C[C@]2(C)[C@H]1C` [Example 7a, 3β-Acetoxy-1-chloroeremophila-1(10),7(11),8(9)-trien-12,8-olide], the half-inhibitory concentration (IC50) was less than 0.1 µM.

Turning to `CC(=O)O[C@H]1CC=C2C=C3OC(=O)C(C)=C3C[C@]2(C)[C@H]1C` [Example 7b, 3β-Acetoxyeremophila-1(10),7(11),8(9)-trien-12,8-olide], the concentration for half-maximal inhibition (IC50) is less than 0.1 µM.

The compound `COC(=O)C(C)=C1C[C@@]2(C)C(=CC1=O)C=C[C@H](OC(C)=O)[C@@H]2C` [Example 14a, 3β-Acetoxy-8-oxoeremophila-1(2),7(11),9(10)-trien-12-oic acid methyl ester] registered an IC50 of 0.6 µM. That is a sub-micromolar value.

Take `CC(=O)O[C@H]1C=CC2=C[C@H]3OC(=O)C(C)=C3C[C@]2(C)[C@H]1C` [Example 15, 3β-Acetoxyeremophila-1(2),7(11),9(10)-trien-12,8β-olide]: the half-inhibitory concentration (IC50) was less than 0.1 µM.

`CC1=C2C[C@@]3(C)C(=CC=C[C@@H]3C)C=C2OC1=O` [Example 16, Eremophila-1(10),2(3),7(11),8(9)-tetraen-12,8-olide] returned a half-inhibitory concentration (IC50) of 0.4 µM. In other words, the sub-micromolar range.

With `CC(=O)O[C@H]1CC(Sc2ccccc2)=C2C=C3OC(=O)C(C)=C3C[C@]2(C)[C@H]1C` [Example 21a, 3β-Acetoxy-1-phenylthioeremophila-1(10),7(11),8(9)-trien-12,8-olide], the IC50 turned out to be 0.7 µM.

`CCOC1=C2C=C3OC(=O)C(C)=C3C[C@]2(C)[C@@H](C)[C@@H](OC(C)=O)C1` [Example 21b, 3β-Acetoxy-1-ethoxyeremophila-1(10),7(11),8(9)-trien-12,8-olide] had an IC50 of 0.279 µM.

For the origin of these results see patent publication US5817816A (Meiji Seika Kaisha, Ltd., priority 1997, dated 1998).
